{"source": "paper PMC6934184", "about": "“Selective DNA-PKcs inhibition extends the therapeutic index of localized radiotherapy and chemotherapy” (The Journal of Clinical Investigation, 2019)", "target": "T1, AMPK (A1/B2/G1) (Homo sapiens, UniProt Q13131)", "T1 construct": "purchased Thermo Fisher Scientific (Life Technologies) SelectScreen", "T1 sequence (Q13131 whole entry)": "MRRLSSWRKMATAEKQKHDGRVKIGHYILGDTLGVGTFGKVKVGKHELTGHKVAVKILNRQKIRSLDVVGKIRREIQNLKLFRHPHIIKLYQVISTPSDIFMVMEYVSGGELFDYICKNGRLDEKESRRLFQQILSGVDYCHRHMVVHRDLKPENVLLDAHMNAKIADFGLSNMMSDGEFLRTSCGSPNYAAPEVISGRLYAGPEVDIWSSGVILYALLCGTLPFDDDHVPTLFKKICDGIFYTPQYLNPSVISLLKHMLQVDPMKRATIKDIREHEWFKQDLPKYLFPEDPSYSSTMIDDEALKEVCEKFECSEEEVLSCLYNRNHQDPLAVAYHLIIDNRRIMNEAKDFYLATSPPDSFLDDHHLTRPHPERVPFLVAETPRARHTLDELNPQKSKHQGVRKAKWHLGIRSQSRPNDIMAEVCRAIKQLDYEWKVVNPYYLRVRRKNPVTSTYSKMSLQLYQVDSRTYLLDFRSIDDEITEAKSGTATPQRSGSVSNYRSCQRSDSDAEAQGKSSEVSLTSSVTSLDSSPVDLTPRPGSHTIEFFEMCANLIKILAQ", "T1 sequence (O43741 whole entry partner)": "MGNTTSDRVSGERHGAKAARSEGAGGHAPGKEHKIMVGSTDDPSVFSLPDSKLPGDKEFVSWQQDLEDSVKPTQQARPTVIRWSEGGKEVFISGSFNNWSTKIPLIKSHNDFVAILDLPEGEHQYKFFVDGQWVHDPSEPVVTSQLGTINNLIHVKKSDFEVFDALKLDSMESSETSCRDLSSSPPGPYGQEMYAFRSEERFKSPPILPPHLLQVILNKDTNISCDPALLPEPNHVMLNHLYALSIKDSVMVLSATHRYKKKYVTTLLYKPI", "T1 sequence (P54619 whole entry partner)": "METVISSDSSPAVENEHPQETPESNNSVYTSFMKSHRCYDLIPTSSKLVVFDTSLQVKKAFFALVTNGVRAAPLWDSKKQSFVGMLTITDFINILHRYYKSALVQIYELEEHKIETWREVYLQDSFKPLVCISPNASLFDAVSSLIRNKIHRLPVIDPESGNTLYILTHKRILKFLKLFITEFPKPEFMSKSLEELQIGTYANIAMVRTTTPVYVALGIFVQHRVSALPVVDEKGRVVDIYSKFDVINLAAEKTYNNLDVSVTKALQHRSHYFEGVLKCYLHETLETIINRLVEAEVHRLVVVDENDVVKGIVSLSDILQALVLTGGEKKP", "experiment": "SelectScreen LanthaScreen", "type": "binding", "details": "read-out: % displacement", "summary_of_the_method": "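SelectScreen broad panel; activity (Z'LYTE, Adapta) plus binding formats. ATP: Km app for CSF1R Z'LYTE; 10 for CAMK1 Adapta. Readout = % per kinase.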", "data": [{"molecule": "CN(C(=O)CN1CCOCC1)c1ccc2sc3c(-c4cccc5c(=O)cc(N6CC7CCC(C6)O7)oc45)cccc3c2c1", "note": "[NU5455]", "values": [{"measurement": "inhibition at 1 µM", "result": 0.9, "unit": "%"}]}]}
